Reference: US5096896A, “Sustained release compositions” (National Research Development Corporation, priority 1981, dated 1992)
Entries after “also recorded” stand apart in the source; their conditions may differ.

Experiments:
mice (site of injection) = assay: Tissue reaction and residual oil at the site of injection; assay type: in vivo
Protocol: (§1) Subcutaneous injections were administered in the mid dorsal, suprascapular position. Cages were examined daily and all deaths recorded. Mice were examined for evidence of local irritation at the site of injection.
(§2) An extensive toxicological investigation of the oils, either alone or in combination with antimalarials, has not been undertaken. The observations reported here are based on the behaviour and condition of mice immediately following injection of test substances, and on the development of any obvious gross pathology subsequent to drugging. All animals in experimental groups were examined at intervals for evidence of ulceration or other tissue reactions at the site of injection and mice were killed at intervals and examined for residual oil deposits and evidence of adverse tissue reactions to such deposits.

[1] = test system: Plasmodium berghei (N strain); assay: Experiment 2: P. berghei challenge of mice after sc injection of oil/pyrimethamine mixtures; assay type: in vivo, Plasmodium berghei in mice (Tuck TFW)
Protocol: This experiment was designed to extend the observation presented above in Experiment 1. All basic experimental procedures, including the preparation of 30% w/w dispersions of pyrimethamine base in S1, S2 and S3, were performed as described above. The primary objective was to obtain confirmation of the results obtained above whilst extending the period of observation. […] Twenty-seven groups of mice, with 5 mice in each, were again selected at random from pooled male white mice (Tuck TFW) of 20 gm body weight. Individual groups received 50 mg injections sc of S1 + pyrimethamine, S2 + pyrimethamine, S3 + pyrimethamine or S2 above. The distribution of groups is shown below:
At intervals of 14 days one group of mice from each of the different classes of inocula were infected by the intravenous injection of 1×10^6 mouse erythrocytes parasitised with P. berghei (N strain).
The examination of mice for P. berghei infection was performed as described above in Experiment 1.

[2] = test system: Plasmodium berghei (N strain); assay: Experiment 1: P. berghei challenge of mice after sc injection of derivative oil with or without pyrimethamine; assay type: in vivo, Plasmodium berghei in mice (Tuck TFW male white)
Protocol: In the following experiments several derivative oils of this invention, prepared as aforesaid, were evaluated and compared for suitability as matrixes for active substances in the preparation of injectable depot antimalarial systems.
Depot preparations were made up by adding, by hand mixing, powdered active substance to the respective oil at 30% w/w.
Twenty-eight groups of mice, 5 mice per group, were selected at random from pooled Tuck TFW male white mice of approximately body weight 20 g. The mice were provided with food and water ad libitum. Care was taken that the diet contained adequate levels of p-aminobenzoic acid and that the mouse stock was free from infection with Eperythrozoon coccoides.
On day 0 the groups of mice were processed as follows:
as §1
On day 7, groups (cages) 1 to 7 inclusive were infected with Plasmodium berghei (N strain). 0.2 ml of an inoculum containing 1×10^6 infected mouse erythrocytes was injected into the tail vein of each recipient mouse. The presence or absence of patent malarial infection was determined by blood film examination three days post infection and at intervals thereafter. Standard procedures were employed in the examination of Giemsa stained blood films and in the determination of parasitaemia levels. The method of infection and the techniques for assessment of parasitaemia were as described previously. Some groups in which no parasitaemia developed after the initial inoculation with P. berghei were subsequently reinfected on the days illustrated in Table 5.

P. berghei = assay: Experiment 5: duration of protection by tetracycline in derivative oils; assay type: in vivo, Plasmodium berghei in mice; conditions: 30% tetracycline hydrochloride in oil, 100 mg sc
Protocol: This experiment (which is incomplete) was designed to ascertain the suitability of the derivatives of this invention in the administration of antibiotics. All basis experimental procedures were as described above except that the mice received 100 mg of the 30% mixtures of active substance (tetracycline as free base, or tetracycline as hydrochloride).

[3] = test system: P. berghei drug sensitive N strain; assay: Experiment 4: protection against drug sensitive N strain P. berghei; assay type: in vivo, Plasmodium berghei in mice
Protocol: (§3) This experiment was designed to ascertain whether the sustained release composition of this invention could be utilised for the release of a mixture of active substances from a single depot. Preparations of 30% sulphadiazine + 10% pyrimethamine base in S2 (a new batch prepared as in Example 6) were blended and injected sc in 50 mg aliquots into mice in the suprascapular position. Additional groups of mice received S2 alone or no drug. Three groups of mice with S2 + drugs and 1 group with S2 alone were prepared for challenge on each of days 28, 42, 56 and 70. At each time interval one group each of the S2 + drug mice were challenged by the inoculation iv of 1×10^6 mouse erythrocytes infected with the drug sensitive N strain of P. berghei, the pyrimethamine resistant PYR strain and the sulphonamide resistant ORA strain, respectively. The group of mice with S2 alone was challenged with N strain parasites. Additional groups of control mice without oil were dosed with pyrimethamine (60 mg/kg) and orisulf (1000 mg/kg) immediately post-infection.

[4] = test system: P. berghei sulphonamide resistant ORA strain; assay: Experiment 4: protection against sulphonamide resistant ORA strain P. berghei; assay type: in vivo, Plasmodium berghei in mice; conditions: 1 x 1000 mg/kg, 0 (day 42 of exp)
Protocol: as §3

[5] = test system: P. berghei pyrimethamine resistant PYR strain; assay: Experiment 4: protection against pyrimethamine resistant PYR strain P. berghei; assay type: in vivo, Plasmodium berghei in mice; conditions: 1 x 60 mg/kg, 0 (day 42 of exp)
Protocol: as §3

mice = assay: Toxicity of the derivative oils, alone or with drug, in mice; assay type: in vivo
Excerpt: as §2

CCOC1CCCC(COC(=O)C2CCCC(OCC)O2)O1 (centres unmarked) [Example S2]
Residual injected oil at injection site (mice (site of injection); 54 days after injection): Residues of the injected material were found in each of the 5 mice; also recorded: Somewhat greater quantities, albeit small amounts
Persistence of oil in vivo (mice (site of injection); in words): stable for a surprisingly long time in vivo
Tissue reaction to oil at injection site (mice (site of injection); oil alone, autopsy at 54 days): No evidence of adverse tissue reaction; also recorded: no marked fibrosis or vascularisation of the oil depot site
Duration of antimalarial protection ([1]; 50 mg sc, 30% w/w pyrimethamine base): not less than 12 weeks
Parasitaemia on days post infection ([1]; challenge day 14, day 3/4, a: only one mouse surviving): 41%
Parasitaemia on days post infection ([1]; challenge day 14, day 7/8, a: only one mouse surviving): 80%
Parasitaemia on days post infection ([1]; challenge day 28, day 3/4): 26%
Parasitaemia on days post infection ([1]; challenge day 28, day 7/8): 50%
Parasitaemia on days post infection ([1]; challenge day 42, day 3/4): 3.7%
Parasitaemia on days post infection ([1]; challenge day 42, day 7/8): 32%
Parasitaemia on days post infection ([1]; challenge day 56, day 3/4): 26%
Parasitaemia on days post infection ([1]; challenge day 56, day 7/8): 70%
Parasitaemia on days post infection ([1]; challenge day 56, day 10): 78%
Parasitaemia on days post infection ([1]; challenge day 70, day 3/4): 23%
Parasitaemia on days post infection ([1]; challenge day 70, day 7/8): 74%
Parasitaemia on days post infection ([1]; challenge day 70, day 10, a: only one mouse surviving): 80%
Parasitaemia on days post infection ([1]; challenge day 84, day 3/4): 29.6%
Parasitaemia on days post infection ([1]; challenge day 84, day 7/8, c: one mouse of 5 patent): 70%
Parasitaemia on days post infection ([1]; challenge day 84, day 10): 80%
Parasitaemia (%) on days post infection ([2]; infected 7 days after drugging, day 3, 50 mg sc): 11.2%
Parasitaemia (%) on days post infection ([2]; infected 7 days after drugging, day 10, * estimated, 1 only survivor): ~80%
Parasitaemia (%) on days post infection ([2]; infected 21 days after drugging, day 3, 50 mg sc): 24%
Parasitaemia (%) on days post infection ([2]; infected 21 days after drugging, day 10, * estimated, 1 only survivor): ~80%
Parasitaemia (%) on days post infection ([2]; infected 32 days after drugging, day 3): 11.6%
Parasitaemia (%) on days post infection ([2]; infected 32 days after drugging, day 7): 56%
Malaria parasites in blood on day 3 post-infection ([2]; infected day 45, groups 24 and 25): no malaria parasite was observed
Parasitaemia (%) on days post infection ([2]; infected days 45, 48 after drugging, day 3 (first value)): 0%
Parasitaemia (%) on days post infection ([2]; infected days 45, 48 after drugging, day 3 (second value, after the slash)): 8.8%
Parasitaemia (%) on days post infection ([2]; infected days 45, 48 after drugging, day 7): 16.4%
Parasitaemia (%) on days post infection ([2]; infected days 45, 48 after drugging, day 10): 80%
Minimum period of protection of mice with pyrimethamine ([2]; oil with pyrimethamine, 50 mg sc): ≥ 9 weeks
Duration of protection (days), tetracycline HCl (P. berghei): < 7 days
Mice with patent parasitaemia post-challenge ([3]; challenge day 28, day 3): 5/5
Mice with patent parasitaemia post-challenge ([3]; challenge day 28, day 7): 5/5
Mice with patent parasitaemia post-challenge ([3]; challenge day 42, day 3): 5/5
Mice with patent parasitaemia post-challenge ([3]; challenge day 42, day 7): 2/2
Mice with patent parasitaemia post-challenge ([3]; challenge day 56, day 3): 5/5
Mice with patent parasitaemia post-challenge ([3]; challenge day 56, day 7): 5/5

Nc1ccc(S(=O)(=O)Nc2ccnn2-c2ccccc2)cc1 [orisulf]
Mice with patent parasitaemia post-challenge ([4]; day 3): 5/5
Mice with patent parasitaemia post-challenge ([4]; day 7): 5/5
Mice with patent parasitaemia post-challenge ([4]; day 10): 5/5

CCc1nc(N)nc(N)c1-c1ccc(Cl)cc1 [pyr, pyrimethamine]
Mice with patent parasitaemia post-challenge ([5]; day 3): 5/5
Mice with patent parasitaemia post-challenge ([5]; day 7): 4/4
Mice with patent parasitaemia post-challenge ([5]; day 10): 4/4
Mice dead at 24 hours (mice; mouse, in vivo): One of 5 mice

CCc1nc(N)nc(N)c1-c1ccc(Cl)cc1 [pyrimethamine isethionate]
Mortality after dosing (mice; mouse, in vivo): all mice died within 1 hour of dosing
Distress after dosing (mice; sc, equivalent to 750 mg/kg and 1500 mg/kg base): induced distress in animals within minutes
